We go through two compounds from patent publication US20250223607A1, “HPPD Variants and Methods of Use” (BASF Agricultural Solutions Seed US LLC, priority 2013, published 2025).

In assay [1] the target is T1, Arabidopsis thaliana wild type HPPD “SEQ ID No. 32” (Arabidopsis thaliana, UniProt P93836).
T1 construct: made in house; host or cells: E. coli BL21 (DE3)
T1 sequence (P93836 with tags, fused parts or gaps): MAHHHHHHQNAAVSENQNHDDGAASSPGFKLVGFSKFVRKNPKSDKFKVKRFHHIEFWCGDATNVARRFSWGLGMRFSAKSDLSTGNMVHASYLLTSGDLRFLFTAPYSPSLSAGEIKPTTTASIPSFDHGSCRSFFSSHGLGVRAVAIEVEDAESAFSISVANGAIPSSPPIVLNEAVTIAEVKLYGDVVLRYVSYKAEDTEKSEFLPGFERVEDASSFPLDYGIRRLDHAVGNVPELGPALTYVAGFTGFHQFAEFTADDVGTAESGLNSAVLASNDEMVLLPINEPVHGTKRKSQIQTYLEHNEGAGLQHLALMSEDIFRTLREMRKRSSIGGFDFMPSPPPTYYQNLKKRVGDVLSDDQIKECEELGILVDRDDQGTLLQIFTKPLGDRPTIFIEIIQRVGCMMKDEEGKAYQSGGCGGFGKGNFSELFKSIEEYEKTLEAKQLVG
The assay can be described thus: pI50 determination from dose-response plots of HPPD activity (standard spectrophotometric assay of WO 2009/144079). The assay is classed as biochemical. An excerpt: (§1) In this content, pI50-value means the log value of the concentration of inhibitor necessary to inhibit 50% of the enzyme activity in molar concentration.

Assay [2] addresses T2, Arabidopsis HPPD single point mutant SEQ ID No. 40 (Arabidopsis thaliana, UniProt P93836, V269A).
T2 construct: made in house; host or cells: E. coli BL21 (DE3)
The assay can be described thus: biochemical. The settings on record: V269A mutant (SEQ ID No. 40); 2 mM HPP, 3 minutes incubation.
Source text: as §1

Assay [3] addresses T3, Arabidopsis HPPD single point mutant SEQ ID No. 46 (Arabidopsis thaliana, UniProt P93836, K421I).
T3 construct: made in house; host or cells: E. coli BL21 (DE3)
The assay can be described thus: biochemical. The settings on record: K421I mutant (SEQ ID No. 46); 2 mM HPP, 3 minutes incubation.
Source text: as §1

The target in assay [4] is T4, Arabidopsis HPPD single point mutant SEQ ID No. 44 (Arabidopsis thaliana, UniProt P93836, L368M).
T4 construct: made in house; host or cells: E. coli BL21 (DE3)
T4 sequence (P93836 other isoform, or with tags, fused parts or gaps L368M): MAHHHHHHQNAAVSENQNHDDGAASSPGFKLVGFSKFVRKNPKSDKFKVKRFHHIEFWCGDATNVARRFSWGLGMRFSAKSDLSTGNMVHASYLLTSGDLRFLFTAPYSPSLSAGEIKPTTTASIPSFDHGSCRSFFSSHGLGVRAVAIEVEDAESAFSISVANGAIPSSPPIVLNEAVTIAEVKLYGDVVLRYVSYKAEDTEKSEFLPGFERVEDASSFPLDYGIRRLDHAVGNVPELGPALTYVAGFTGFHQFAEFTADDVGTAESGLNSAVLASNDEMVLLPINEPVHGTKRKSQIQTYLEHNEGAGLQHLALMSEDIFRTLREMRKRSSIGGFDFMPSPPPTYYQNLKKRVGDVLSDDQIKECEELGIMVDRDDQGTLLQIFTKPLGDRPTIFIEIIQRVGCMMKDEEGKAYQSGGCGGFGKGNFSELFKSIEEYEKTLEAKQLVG
Nature of the assay: biochemical. The settings on record: L368M mutant (SEQ ID No. 44); 2 mM HPP, 3 minutes incubation.
Source text: as §1

Assay [5] addresses T5, Arabidopsis HPPD single point mutant SEQ ID No. 42 (Arabidopsis thaliana, UniProt P93836, P280A).
T5 construct: made in house; host or cells: E. coli BL21 (DE3)
Nature of the assay: biochemical. The following applies: P280A mutant (SEQ ID No. 42); 2 mM HPP, 3 minutes incubation.
Source text: as §1

Assay [6] deals with T6, Arabidopsis HPPD single point mutant SEQ ID No. 50 (Arabidopsis thaliana, UniProt P93836, K421V).
T6 construct: made in house; host or cells: E. coli BL21 (DE3)
T6 sequence (P93836 other isoform, or with tags, fused parts or gaps K421V): as the sequence (P93836 other isoform, or with tags, fused parts or gaps L368M) above, with M373L, K426V counted along it
The assay can be described thus: biochemical. The following applies: K421V mutant (SEQ ID No. 50); 2 mM HPP, 3 minutes incubation.
Source text: as §1

Assay [7] concerns the target T7, Arabidopsis HPPD single point mutant SEQ ID No. 35 (Arabidopsis thaliana, UniProt P93836, E252S).
T7 construct: made in house; host or cells: E. coli BL21 (DE3)
Nature of the assay: biochemical. The settings on record: E252S mutant; 2 mM HPP, 3 minutes incubation.
Source text: as §1

In assay [8] the target is T8, Arabidopsis HPPD single point mutant SEQ ID No. 48 (Arabidopsis thaliana, UniProt P93836, K421Q).
T8 construct: made in house; host or cells: E. coli BL21 (DE3)
T8 sequence (P93836 other isoform, or with tags, fused parts or gaps K421Q): as the sequence (P93836 other isoform, or with tags, fused parts or gaps L368M) above, with M373L, K426Q counted along it
Nature of the assay: biochemical. The settings on record: K421Q mutant (SEQ ID No. 48); 2 mM HPP, 3 minutes incubation.
Source text: as §1

Setting [9] is: SEQ ID No. 32 (wild type), 2 mM HPP, 3 minutes incubation.

Each structure is given as a SMILES string.

T7 sequence (P93836 whole entry E252S): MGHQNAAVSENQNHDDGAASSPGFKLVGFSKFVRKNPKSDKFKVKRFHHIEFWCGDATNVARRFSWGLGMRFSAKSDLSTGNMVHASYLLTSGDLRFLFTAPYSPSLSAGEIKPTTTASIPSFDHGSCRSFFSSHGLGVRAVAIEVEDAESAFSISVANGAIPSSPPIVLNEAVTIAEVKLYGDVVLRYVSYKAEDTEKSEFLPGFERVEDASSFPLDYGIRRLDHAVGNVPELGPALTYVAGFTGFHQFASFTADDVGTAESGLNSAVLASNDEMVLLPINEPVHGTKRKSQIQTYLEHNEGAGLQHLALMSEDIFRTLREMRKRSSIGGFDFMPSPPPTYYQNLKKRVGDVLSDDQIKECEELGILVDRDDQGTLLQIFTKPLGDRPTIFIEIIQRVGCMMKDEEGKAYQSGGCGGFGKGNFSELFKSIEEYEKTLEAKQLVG
T5 sequence (P93836 other isoform, or with tags, fused parts or gaps P280A): as the sequence (P93836 other isoform, or with tags, fused parts or gaps L368M) above, with P285A, M373L counted along it
T3 sequence (P93836 other isoform, or with tags, fused parts or gaps K421I): as the sequence (P93836 other isoform, or with tags, fused parts or gaps L368M) above, with M373L, K426I counted along it
T2 sequence (P93836 other isoform, or with tags, fused parts or gaps V269A): as the sequence (P93836 other isoform, or with tags, fused parts or gaps L368M) above, with V274A, M373L counted along it

`Cc1ccc(S(=O)(=O)Oc2c(C(=O)c3ccc(Cl)cc3Cl)c(C)nn2C)cc1` [Pyrazolat]: the pI50 in assay [1] (setting [9]) was 5.4; in assay [2], 4.4; in assay [3] it was 4.5; in assay [4], 4.9; in assay [5], 4.7; in assay [6] it was 4.5. The pI50 is 4.7 in assay [7] and 5.0 in assay [8].

Take `Cc1nn(C)c(O)c1C(=O)c1ccc(C(F)(F)F)cc1S(C)(=O)=O` [Pyrasulfotole]: the pI50 in assay [1] (2 mM fixed HPP concentration, 3 minutes fixed incubation time, inhibitor 2.5 × 10^−6 to 2.5 × 10^−4 M) was 5.4; in assay [1] (setting [9]) it was 5.4; in assay [2], 4.4; in assay [3], 4.3; in assay [4], 5.0; in assay [5], 4.4. In addition, the pI50 was 4.4 in assay [6], 4.3 in assay [7] and 4.8 in assay [8].
